Assay results reported in PMC10099595, “Multimodal 4-arylchromene derivatives with microtubule-destabilizing, anti-angiogenic, and MYB-inhibitory activities” (Cancer Drug Resistance, 2023).
Read-outs that look alike come from different tables or passages of the source.

What was measured:
[1] = tested on: tested cancer and hybrid cell lines; assay: MTT assay, average over all tested cancer and hybrid cell lines; settings: for IC50: Homo sapiens; for SI (IC50 HDFa cells/IC50 tumor cell average): selectivity index, HDFa vs tumor cell average
Experimental: An 3-(4, 5-dimethylthiazol-2-yl)-2, 5-diphenyl tetrazolium bromid (MTT) assay was used for antiproliferative studies. Cancer cells (5 × 10^4 cells/mL, 100 μL/well) were placed in 96-well plates (10 × 10^4 cells/mL for HDFA and U87 cells), and the cells were incubated for 24 h at 5% CO2 and 95% humidity. Then, cells were treated with test compounds (at various concentrations) or solely with DMSO as a negative control for 72 h. Then, 12.5 μL of a 0.5% MTT solution in phosphate-buffered saline (PBS) was added to the cells, followed by incubation for 2 h at 37 °C. After centrifugation of the plates (300 × g, 5 min, 4 °C), the medium was discarded, and 25 μL of DMSO containing 10% SDS and 0.6% acetic acid was added, followed by incubation at 37 °C for at least 1 h. Formazan absorbance at λ = 570 nm was measured using a Tecan infinite F200 microplate reader and corrected for the background (λ = 630 nm). The 50% inhibitory concentration (IC50) values were calculated from dose-response curves (means ± SD, four independent experiments) compared to DMSO-treated control cells, which were set to 100%. GraphPad Prism 9 was used for curve-fitting.
The selectivity index (SI) was calculated as a measure of selectivity toward cancer cells compared to non-malignant cells.

U-87 glioblastoma cells [2] = assay: MTT antiproliferative assay, U87; format: cell-based; settings: Homo sapiens, 72 h
From the text: (§1) The following cell lines were used: 518A2 melanoma (Department of Radiotherapy, Medical University of Vienna, Austria)[15], HeLa cervix carcinoma, KBV1^Vbl (ACC-149 cervix carcinoma, MCF7 [ACC-115]) breast carcinoma, U-87 glioblastoma, HT-29 (ACC-299), HCT-116 (ACC-581) and HCT-116p53-/- colon carcinoma, EA.hy926 (ATCC® CRL-2922^TM) endothelial hybrid cells, and HDFa (ATCC® PCS-201-012^TM) adult human dermal fibroblasts. […] Only mycoplasma-free cultures were used.

[3] = tested on: MCF-7 breast carcinoma cells; assay: MTT antiproliferative assay, MCF-7; format: cell-based; settings: Homo sapiens, MCF7, 72 h
From the text: as §1

518A2 melanoma cells [4] = assay: Cell-cycle analysis (FACS, propidium iodide); format: cell-based, human; settings: 518A2 cells, 25 nM, 24 h
Experimental: 518A2 melanoma cells (10 × 10^4 cells/mL, 3 mL/well) were cultivated in six-well plates for 24 h. After the treatment with test compounds (10 and 25 nm), C-A4 (10 and 25 nm), or DMSO (vehicle) for an additional 24 h, the cells were trypsinized, centrifuged (300 × g, 5 min, 4 °C), and fixed in 70% EtOH for min. 24 h. For FACS measurement, cells were washed in PBS and stained with propidium iodide solution (50 µg/mL PI, 50 µg/mL RNase A in 0.1% sodium citrate) for 30 min at 37 °C. The DNA content of at least 10000 single cells was determined using a Beckmann Coulter Cytomics FC500 flow cytometer (λex = 488 nm, λem = 570 nm). CXP software (Beckman Coulter) was used to analyze the cells in the cell cycle phases (sub-G1, G1, S, G2/M).

[5] = tested on: HCT-116 p53-/- colon carcinoma cells; assay: MTT antiproliferative assay, HCT-116 p53-/-; format: cell-based; settings: Homo sapiens, 72 h
From the text: as §1

[6] = tested on: HT-29 colon carcinoma cells; assay: MTT antiproliferative assay, HT-29; format: cell-based; settings: Homo sapiens, 72 h
From the text: as §1

[7] = tested on: KB-V1^Vbl cervix carcinoma cells; assay: MTT antiproliferative assay, KB-V1Vbl (with or without verapamil); format: cell-based, human; settings: for IC50: Homo sapiens, KB-V1/Vbl, 72 h, read-out: IC50 KB-V1^Vbl
From the text: as §1

[8] = tested on: EA.hy926 endothelial hybrid cells; assay: MTT antiproliferative assay, EA.hy926; format: cell-based; settings: Homo sapiens, EA.hy 926, 72 h
From the text: as §1

[9] = tested on: HeLa cervix carcinoma cells; assay: MTT antiproliferative assay, HeLa; format: cell-based; settings: Homo sapiens, 72 h
From the text: as §1

[10] = tested on: HCT-116 colon carcinoma cells; assay: MTT antiproliferative assay, HCT-116; format: cell-based; settings: Homo sapiens, 72 h
From the text: as §1

518A2 melanoma cells [11] = assay: MTT antiproliferative assay, 518A2; format: cell-based; settings: Homo sapiens, 72 h
From the text: as §1

[12] = tested on: HDFa adult human dermal fibroblasts; assay: MTT cytotoxicity assay, non-malignant HDFa; format: cell-based; settings: 72 h, non-malignant cells
From the text: as §1

MYB = target: T1, MYB (Homo sapiens, UniProt P10242, K503R/K527R); assay: Luciferase-dependent MYB activity assay (HEK-MYB-Luc reporter cells); format: cell-based; settings: HEK-293 reporter cells, 16 h; read-out: IC50 inhibition of MYB activity
T1 construct: expressed in transfected cells; host or cells: HEK-293 (HEK-MYB-Luc reporter cell line)
Experimental: Compounds were tested using the HEK-MYB-Luc reporter cell line, which allows a doxycycline-dependent induction of MYB expression and harbors an MYB-dependent luciferase reporter plasmid, as previously described. After 16 h of substance treatment (0.0001-3 µM), luciferase activities were analyzed as described.

zebrafish larvae = assay: Zebrafish angiogenesis assay (SIV area); format: in vivo; settings: 48 h treatment; for effect on SIV growth (angiogenesis): zebrafish larvae 24 hpf, 50-1000 nM
Experimental: Transgenic zebrafish (Tg(fli1:EGFP, casper mutant) were bred at 28 °C.[16] After fertilization, the eggs were transferred to E3-medium (5 mm NaCl, 0.17 mm KCl, 0.33 mm CaCl, 0.33 mm MgSO4, 0.01% methylene blue, pH 7.2), followed by incubation for 24 h. The chorion was manually removed, and the larvae were treated with test compounds or solvent in six-well plates (30 fish per concentration, 5 mL/well) for 48 h. The fluorescent vasculature was documented with a Leica MZ10F and Zeiss AxioCam MRrc. To quantify the angiogenesis, the sub-intestinal vein (SIV) area was measured using ImageJ and expressed as means ± SD with the control set to 100%. The significance of SIV reduction through substance treatment was assessed using one-way analysis of variance (ANOVA), *P < 0.05; **P < 0.01; ***P < 0.001; ****P < 0.0001, with Dunnett´s multiple comparison test (GraphPad Prism 9).

[13] = tested on: microtubule cytoskeleton of 518A2 melanoma cells; assay: Microtubule immunofluorescence staining; format: cell-based, human; settings: 518A2 cells, 100 nM
Experimental: The cells were treated with test compounds and controls (25 and 100 nm) for 0.5, 1, 3, and 6 h and washed with cytoskeletal buffer (100 nm PIPES, 3 nm MgCl2, 138 nm KCl, 2 nm EGTA, 300 nm sucrose, pH 6.8). Fixation and permeabilization were performed for 5 min with 3.7% formaldehyde and 0.2% Triton X-100 in a cytoskeletal buffer. The cells were fixed with cold EtOH for 10 s, rehydrated in PBS, and blocked with 1% bovine serum albumin in PBS for 30 min. The microtubules were stained for 1 h with primary (anti-α-tubulin, mouse monoclonal antibody) and secondary antibodies (goat anti-mouse IgG-AF-546, Invitrogen) and washed with PBS between each treatment. Nuclei were stained using DAPI (1 µg/mL in PBS) for 30 min. The coverslips were placed in Roti®-Mount FluorCare. Microtubules (λex = 488 nm, λem = 507 nm) and nuclei (λex = 358 nm, λem = 461 nm) were documented by confocal microscopy (Leica TCS SP5 confocal microscope, 630 × magnification) and edited with ImageJ.

U-87 glioblastoma cells [14] = settings: ref Köhler et al.[13]; read-out: IC50 U87; cited from earlier work
518A2 melanoma cells [15] = settings: ref Köhler et al.[13]; cited from earlier work
[16] = tested on: HT-29 colon carcinoma cells; settings: ref Köhler et al.[13]; cited from earlier work
[17] = tested on: KB-V1^Vbl cervix carcinoma cells; settings: without verapamil; ref Köhler et al.[13]; cited from earlier work
[18] = tested on: HCT-116 p53-/- colon carcinoma cells; settings: ref Köhler et al.[13]; cited from earlier work
[19] = tested on: HCT-116 colon carcinoma cells; settings: ref Köhler et al.[13]; cited from earlier work
[20] = tested on: EA.hy926 endothelial hybrid cells; settings: ref Köhler et al.[13]; cited from earlier work
[21] = tested on: MCF-7 breast carcinoma cells; settings: ref Köhler et al.[13]; cited from earlier work
[22] = read-out: Average IC50 value of the tested cancer and hybrid cell lines (Ø IC50), average of all cell lines of Table 2
[23] = read-out: Average IC50 value of the tested cancer and hybrid cell lines (Ø IC50)

T1 sequence (P10242 whole entry K503R/K527R): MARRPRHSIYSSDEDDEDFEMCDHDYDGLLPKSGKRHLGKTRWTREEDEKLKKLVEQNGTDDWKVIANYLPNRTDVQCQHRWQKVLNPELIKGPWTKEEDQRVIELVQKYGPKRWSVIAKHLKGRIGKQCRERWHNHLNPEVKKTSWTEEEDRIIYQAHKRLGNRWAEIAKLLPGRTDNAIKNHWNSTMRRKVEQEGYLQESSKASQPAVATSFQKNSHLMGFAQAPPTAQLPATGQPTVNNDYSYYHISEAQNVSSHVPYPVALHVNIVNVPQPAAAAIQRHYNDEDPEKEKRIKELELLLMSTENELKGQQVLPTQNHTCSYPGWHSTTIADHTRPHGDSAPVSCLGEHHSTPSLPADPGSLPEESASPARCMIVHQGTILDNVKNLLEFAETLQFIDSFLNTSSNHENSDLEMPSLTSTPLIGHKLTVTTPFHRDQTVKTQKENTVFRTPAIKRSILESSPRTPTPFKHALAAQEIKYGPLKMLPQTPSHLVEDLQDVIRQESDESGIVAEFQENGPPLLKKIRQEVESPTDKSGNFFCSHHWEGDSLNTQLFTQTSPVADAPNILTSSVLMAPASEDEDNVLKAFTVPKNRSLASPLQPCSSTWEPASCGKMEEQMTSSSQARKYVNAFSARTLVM

Structure (SMILES) | IC50 [1, 22] | IC50 (U-87 glioblastoma cells [2]) | IC50 [3] | G2/M cell-cycle arrest (in words) (518A2 melanoma cells [4]) | IC50 [5] | IC50 [6] | IC50 ([7]; MTT, without verapamil) | IC50 [8] | IC50 [9] | IC50 [10] | IC50 (518A2 melanoma cells [11]) | melting point | IC50 [12] | also measured
COc1ccc2c(c1)OC(N)=C(C#N)C2c1cc(Cl)c(OC)c(Cl)c1 (stereo not shown) [2D, 2-Amino-3-cyano-4-(3’, 5’-dichloro-4’-methoxyphenyl)-7-methoxy-4H-chromene] | > 500 nM | 3900 ± 400 nM | 2400 ± 300 nM | only a slight increase in G2/M phase cells | 1900 ± 200 nM | 1400 ± 100 nM | 2100 ± 100 nM | 1100 ± 70 nM | 700 ± 50 nM | 2500 ± 200 nM | 2100 ± 200 nM | – | – | –
COc1ccc2c(c1)OC(N)=C(C#N)C2c1cc(Cl)c(OC)c(OC)c1 (stereo not shown) [2A, 2-Amino-3-cyano-4-(3’-chloro-4’, 5’-dimethoxyphenyl)-7-methoxy-4H-chromene] | 53 nM | 20 ± 3 nM | 40 ± 7 nM | – | 70 ± 5 nM | 300 ± 20 nM | 6 ± 0.5 nM | 0.4 ± 0.06 nM | 10 ± 0.4 nM | 70 ± 5 nM | 4 ± 0.3 nM | 224 to 225 °C | 11500 nM | SI (IC50 HDFa cells/IC50 tumor cell average) [1]: 219; IC50 (MYB): 2.81 ± 0.3 nM; effect on SIV growth (angiogenesis) (zebrafish larvae): inhibited angiogenesis to an extent comparable to the known inhibitor axitinib
COc1ccc2c(c1)OC(N)=C(C#N)C2c1ccccc1Cl (stereo not shown) [2H, 2-Amino-3-cyano-4-(2’-chlorophenyl)-7-methoxy-4H-chromene] | > 500 nM | 7400 ± 200 nM | 5100 ± 370 nM | – | 2800 ± 300 nM | 5300 ± 970 nM | 1900 ± 200 nM | 3700 ± 300 nM | 1400 ± 100 nM | 3700 ± 400 nM | 2000 ± 100 nM | 184 °C | – | –
COc1ccc2c(c1)OC(N)=C(C#N)C2c1cc(I)c(OC)c(I)c1 (stereo not shown) [2F, 2-Amino-3-cyano-4-(3,5-diiodo-4-methoxyphenyl)-7-methoxy-4H-chromene] | 43 nM | 50 ± 10 nM | 80 ± 4 nM | – | – | 60 ± 1 nM | 70 ± 7 nM | 20 ± 2 nM | 30 ± 3 nM | 30 ± 5 nM | 20 ± 0.4 nM | – | > 50000 nM | time to change/breakdown of the microtubule cytoskeleton [13]: 1 h; cells arrested before or during mitosis (G2/M) (518A2 melanoma cells [4]): about 74%; IC50 (MYB): 2.31 ± 0.4 nM; effect on SIV growth (angiogenesis) (zebrafish larvae): no significant change in blood vessel growth; concentration above which toxic effect occurs (zebrafish larvae; zebrafish larvae): above 250 nM
C#CCOc1ccc2c(c1)OC(N)=C(C#N)C2c1cc(Br)c(OC)c(OC)c1 (stereo not shown) [compound 3, 2-Amino-3-cyano-4-(3’-bromo-4’, 5’-dimethoxyphenyl)-7-propargyloxy-4H-chromene] | – | 90 ± 3 nM | 70 ± 4 nM | – | 90 ± 7 nM | 2100 ± 300 nM | – | 80 ± 2 nM | 40 ± 2 nM | 300 ± 10 nM | 60 ± 3 nM | 206 to 207 °C | – | IC50 [1, 23]: 321 nM; IC50 [7]: 80 ± 3 nM
COc1ccc2c(c1)OC(N)=C(C#N)C2c1cc(Br)c(OC)c(Br)c1 (stereo not shown) [2E, 2-Amino-3-cyano-4-(3’, 5’-dibromo-4’-methoxyphenyl)-7-methoxy-4H-chromene] | – | 20 ± 2 nM | 80 ± 3 nM | only a slight increase in G2/M phase cells | 40 ± 3 nM | 300 ± 2 nM | – | 20 ± 1 nM | 30 ± 3 nM | 20 ± 2 nM | 20 ± 2 nM | – | 22200 nM | IC50 [1, 23]: 374 nM; SI (IC50 HDFa cells/IC50 tumor cell average) [1]: 59; IC50 [7]: 3200 ± 300 nM; fold lower IC50 values combined with verapamil ([7]; KB-V1^Vbl cells, verapamil 1 µM vs none): 320 fold
COc1ccc(/C=C\c2cc(OC)c(OC)c(OC)c2)cc1O [C-A4, combretastatin A4, reference compound] | – | – | – | significant G2/M cell-cycle arrest | – | – | – | – | – | – | – | – | – | time to change of the microtubule structure [13]: 30 min
COc1c(I)cc(C2C(C#N)=C(N)Oc3c2c(=O)oc2ccccc32)cc1I (stereo not shown) [1C] | > 500 nM | – | – | – | – | – | – | – | – | – | – | – | – | IC50 (U-87 glioblastoma cells [14]): 5500 ± 300 nM; IC50 (518A2 melanoma cells [15]): 1500 ± 100 nM; IC50 [16]: 2500 ± 200 nM; IC50 [17]: 3700 ± 60 nM; IC50 [18]: 2900 ± 60 nM; IC50 [19]: 3100 ± 100 nM; IC50 [20]: 2800 ± 70 nM; IC50 [21]: 3400 ± 200 nM
